Results taken from the NIST ThermoML archive (doi:10.1021/acs.jced.6b00542).

Test: xn = mol fraction of the nth substance listed
Settings: for speed of sound: 100 kPa, Frequency=3 MHz, Sing-around technique in a fixed-path interferometer; for speed of sound / viscosity / mass density: Liquid; for viscosity / mass density: 102 kPa; for viscosity: Concentric cylinders viscometry; for mass density: Vibrating tube method; for surface tension liquid-gas: 294.5 K, Pendant drop shape

CCCCc1ccccc1 [butylbenzene] + CCCCCCCCCCCCCC
Settings	mass density [kg/m3]	speed of sound [m/s]	viscosity [mPa·s]
293.15 K, x1 = 0.1414	770.92	1330.1	2.06
293.15 K, x1 = 0.2704	779.61	1329.5	1.86
293.15 K, x1 = 0.3915	788.74	1329.7	1.69
293.15 K, x1 = 0.4988	797.91	1330.9	1.55
293.15 K, x1 = 0.5961	807.14	1332.5	1.44
293.15 K, x1 = 0.6892	817.1	1334.9	1.34
293.15 K, x1 = 0.7751	827.32	1338.1	1.25
293.15 K, x1 = 0.8553	837.74	1342.1	1.18
293.15 K, x1 = 0.9299	849.02	1347.7	1.12
293.15 K, x1 = 1	860.51	1353.7	1.05
303.15 K, x1 = 0.1414	763.79	1292.6	1.7
303.15 K, x1 = 0.2704	772.41	1292.1	1.54
303.15 K, x1 = 0.3915	781.46	1292.3	1.42
303.15 K, x1 = 0.4988	790.54	1293.4	1.31
303.15 K, x1 = 0.5961	799.68	1294.9	1.22
303.15 K, x1 = 0.6892	809.54	1297.2	1.14
303.15 K, x1 = 0.7751	819.66	1300.2	1.07
303.15 K, x1 = 0.8553	829.96	1303.8	1.02
303.15 K, x1 = 0.9299	841.12	1309.2	0.965
303.15 K, x1 = 1	852.49	1314.9	0.91
313.15 K, x1 = 0.1414	756.65	1255.6	1.42
313.15 K, x1 = 0.2704	765.18	1255.1	1.31
313.15 K, x1 = 0.3915	774.14	1255.3	1.21
313.15 K, x1 = 0.4988	783.14	1256.3	1.12
313.15 K, x1 = 0.5961	792.18	1257.6	1.05
313.15 K, x1 = 0.6892	801.94	1259.8	0.987
313.15 K, x1 = 0.7751	811.95	1262.7	0.932
313.15 K, x1 = 0.8553	822.15	1266.1	0.886
313.15 K, x1 = 0.9299	833.19	1271.2	0.843
313.15 K, x1 = 1	844.43	1276.6	0.801
323.15 K, x1 = 0.1414	749.49	1219.1	1.21
323.15 K, x1 = 0.2704	757.94	1218.6	1.12
323.15 K, x1 = 0.3915	766.81	1218.7	1.04
323.15 K, x1 = 0.4988	775.71	1219.6	0.973
323.15 K, x1 = 0.5961	784.66	1220.9	0.915
323.15 K, x1 = 0.6892	794.32	1223	0.863
323.15 K, x1 = 0.7751	804.22	1225.6	0.818
323.15 K, x1 = 0.8553	814.31	1228.9	0.78
323.15 K, x1 = 0.9299	825.22	1233.7	0.744
323.15 K, x1 = 1	836.34	1238.7	0.713
333.15 K, x1 = 0.1414	742.31	1183.2	1.05
333.15 K, x1 = 0.2704	750.67	1182.7	0.973
333.15 K, x1 = 0.3915	759.45	1182.7	0.908
333.15 K, x1 = 0.4988	768.25	1183.5	0.853
333.15 K, x1 = 0.5961	777.11	1184.7	0.806
333.15 K, x1 = 0.6892	786.65	1186.6	0.762
333.15 K, x1 = 0.7751	796.45	1189.1	0.725
333.15 K, x1 = 0.8553	806.42	1192.1	0.691
333.15 K, x1 = 0.9299	817.22	1196.7	0.662
333.15 K, x1 = 1	828.21	1201.4	0.636
343.15 K, x1 = 0.1414	735.2	–	0.912
343.15 K, x1 = 0.2704	743.4	–	0.852
343.15 K, x1 = 0.3915	752	–	0.8
343.15 K, x1 = 0.4988	760.8	–	0.753
343.15 K, x1 = 0.5961	769.6	–	0.716
343.15 K, x1 = 0.6892	779	–	0.678
343.15 K, x1 = 0.7751	788.7	–	0.647
343.15 K, x1 = 0.8553	798.5	–	0.619
343.15 K, x1 = 0.9299	809.2	–	0.592
343.15 K, x1 = 1	819.9	–	0.571
353.15 K, x1 = 0.1414	728	–	0.804
353.15 K, x1 = 0.2704	736.1	–	0.754
353.15 K, x1 = 0.3915	744.6	–	0.711
353.15 K, x1 = 0.4988	753.3	–	0.671
353.15 K, x1 = 0.5961	762	–	0.639
353.15 K, x1 = 0.6892	771.3	–	0.608
353.15 K, x1 = 0.7751	780.9	–	0.581
353.15 K, x1 = 0.8553	790.6	–	0.557
353.15 K, x1 = 0.9299	801.1	–	0.534
353.15 K, x1 = 1	811.7	–	0.516
363.15 K, x1 = 0.1414	720.7	–	0.715
363.15 K, x1 = 0.2704	728.7	–	0.674
363.15 K, x1 = 0.3915	737.1	–	0.637
363.15 K, x1 = 0.4988	745.7	–	0.604
363.15 K, x1 = 0.5961	754.3	–	0.576
363.15 K, x1 = 0.6892	763.5	–	0.55
363.15 K, x1 = 0.7751	773	–	0.526
363.15 K, x1 = 0.8553	782.5	–	0.505
363.15 K, x1 = 0.9299	793	–	0.486
363.15 K, x1 = 1	803.4	–	0.469
373.15 K, x1 = 0.1414	713.3	–	0.641
373.15 K, x1 = 0.2704	721.2	–	0.606
373.15 K, x1 = 0.3915	729.5	–	0.575
373.15 K, x1 = 0.4988	738	–	0.547
373.15 K, x1 = 0.5961	746.5	–	0.523
373.15 K, x1 = 0.6892	755.6	–	0.5
373.15 K, x1 = 0.7751	764.9	–	0.48
373.15 K, x1 = 0.8553	774.3	–	0.461
373.15 K, x1 = 0.9299	784.7	–	0.444
373.15 K, x1 = 1	795	–	0.43

Settings	surface tension liquid-gas [mN/m]
x1 = 0.1414	26.5
x1 = 0.2704	26.7
x1 = 0.3915	27
x1 = 0.4988	27
x1 = 0.5961	27.3
x1 = 0.6892	27.3
x1 = 0.7751	27.8
x1 = 0.8553	28
x1 = 0.9299	28.3
